Assay results: patent US11324729B2, “NSD family inhibitors and methods of treatment therewith” (The Regents of the University of Michigan, priority 2017, dated 2022)
Where two headings read alike, the source gives them in different places. One block for each compound: values may come before it.

Assays:
[1] = tested on: Nup98-NSD1 subcutaneous model; assay: Nup98-NSD1 subcutaneous leukemia model in mice; type: in vivo; settings: 25 mg/kg q.d., I.P.
Experimental: FIG. 6A-F. Pharmacokinetics and efficacy of 159 in Nup98-NSD1 leukemia model. A. Pharmacokinetics studies in mice treated with 25 mg/kg of 159 using I.P. administration. B. Efficacy in Nup98-NSD1 subcutaneous model. Mice were treated with 25 mg/kg q.d., I.P. C. Representative tumors from vehicle and 159 treated mice. […] E. Immuno-histochemistry analysis of H3K36me2 level in tumor samples of mice treated with vehicle (top) and 159 (bottom). […] F. Body weight of 159 treated animals.

[2] = tested on: Nup98-NSD1 cells; assay: Cytospins, differentiation of Nup98-NSD1 cells; type: cell-based
[3] = target: T1, NSD1 (Homo sapiens, UniProt Q96L73); assay: Mass spectrometry detection of covalent/irreversible binding to NSD1
T1 construct: 6 μM of 159 was incubated with 1 mM of NSD1 SET domain for 8 hours
T1 sequence (Q96L73 1852-2082 limits assumed): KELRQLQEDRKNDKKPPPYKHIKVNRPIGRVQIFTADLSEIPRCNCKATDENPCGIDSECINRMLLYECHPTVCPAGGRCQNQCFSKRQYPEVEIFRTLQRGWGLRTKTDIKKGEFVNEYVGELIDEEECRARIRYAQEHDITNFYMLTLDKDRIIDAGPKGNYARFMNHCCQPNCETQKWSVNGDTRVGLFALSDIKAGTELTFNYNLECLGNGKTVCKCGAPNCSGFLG
Experimental: (§1) 10 μM 151 was incubated with NSD1 for 20 h. B. HSQC spectrum of 150 μM NSD1 with 300 μM 151.
6 μM of 159 was incubated with 1 mM of NSD1 SET domain for 8 hours.
FIG. 7. […] Asterisk denotes covalent protein adduct with 198.

[4] = target: T2, NSD1 (1753-2095 fragment) (Homo sapiens, UniProt Q96L73); assay: CETSA assay in HeLa cells; type: cell-based; settings: HeLa cells treated with 5 μM compound
T2 construct: expressed in transfected cells; host or cells: HeLa cells
T2 sequence (Q96L73 1753-2095): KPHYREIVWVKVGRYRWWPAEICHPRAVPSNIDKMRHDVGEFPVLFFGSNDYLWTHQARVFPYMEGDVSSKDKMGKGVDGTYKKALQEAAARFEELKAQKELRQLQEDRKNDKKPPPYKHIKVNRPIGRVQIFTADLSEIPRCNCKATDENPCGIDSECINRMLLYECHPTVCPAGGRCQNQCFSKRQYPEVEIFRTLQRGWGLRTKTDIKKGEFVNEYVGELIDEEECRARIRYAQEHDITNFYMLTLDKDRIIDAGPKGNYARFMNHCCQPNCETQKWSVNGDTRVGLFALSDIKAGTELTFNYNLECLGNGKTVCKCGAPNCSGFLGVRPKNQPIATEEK

[5] = tested on: Nup98-NSD1 cells; assay: MTT growth inhibition assay, Nup98-NSD1 cells; type: cell-based; settings: 3, 7 and 10 days
[6] = tested on: HM-2 cells; assay: MTT proliferation assay, control HM-2 cells; type: cell-based
[7] = target: NSD1 (Homo sapiens, UniProt Q96L73); assay: HSQC NMR spectrum of NSD1 with compound; type: binding; settings: 150 μM NSD1 with 300 μM compound; including Cys2062
Experimental: as §1
Target sequence in this assay (Q96L73 whole entry, the tested form may be a part): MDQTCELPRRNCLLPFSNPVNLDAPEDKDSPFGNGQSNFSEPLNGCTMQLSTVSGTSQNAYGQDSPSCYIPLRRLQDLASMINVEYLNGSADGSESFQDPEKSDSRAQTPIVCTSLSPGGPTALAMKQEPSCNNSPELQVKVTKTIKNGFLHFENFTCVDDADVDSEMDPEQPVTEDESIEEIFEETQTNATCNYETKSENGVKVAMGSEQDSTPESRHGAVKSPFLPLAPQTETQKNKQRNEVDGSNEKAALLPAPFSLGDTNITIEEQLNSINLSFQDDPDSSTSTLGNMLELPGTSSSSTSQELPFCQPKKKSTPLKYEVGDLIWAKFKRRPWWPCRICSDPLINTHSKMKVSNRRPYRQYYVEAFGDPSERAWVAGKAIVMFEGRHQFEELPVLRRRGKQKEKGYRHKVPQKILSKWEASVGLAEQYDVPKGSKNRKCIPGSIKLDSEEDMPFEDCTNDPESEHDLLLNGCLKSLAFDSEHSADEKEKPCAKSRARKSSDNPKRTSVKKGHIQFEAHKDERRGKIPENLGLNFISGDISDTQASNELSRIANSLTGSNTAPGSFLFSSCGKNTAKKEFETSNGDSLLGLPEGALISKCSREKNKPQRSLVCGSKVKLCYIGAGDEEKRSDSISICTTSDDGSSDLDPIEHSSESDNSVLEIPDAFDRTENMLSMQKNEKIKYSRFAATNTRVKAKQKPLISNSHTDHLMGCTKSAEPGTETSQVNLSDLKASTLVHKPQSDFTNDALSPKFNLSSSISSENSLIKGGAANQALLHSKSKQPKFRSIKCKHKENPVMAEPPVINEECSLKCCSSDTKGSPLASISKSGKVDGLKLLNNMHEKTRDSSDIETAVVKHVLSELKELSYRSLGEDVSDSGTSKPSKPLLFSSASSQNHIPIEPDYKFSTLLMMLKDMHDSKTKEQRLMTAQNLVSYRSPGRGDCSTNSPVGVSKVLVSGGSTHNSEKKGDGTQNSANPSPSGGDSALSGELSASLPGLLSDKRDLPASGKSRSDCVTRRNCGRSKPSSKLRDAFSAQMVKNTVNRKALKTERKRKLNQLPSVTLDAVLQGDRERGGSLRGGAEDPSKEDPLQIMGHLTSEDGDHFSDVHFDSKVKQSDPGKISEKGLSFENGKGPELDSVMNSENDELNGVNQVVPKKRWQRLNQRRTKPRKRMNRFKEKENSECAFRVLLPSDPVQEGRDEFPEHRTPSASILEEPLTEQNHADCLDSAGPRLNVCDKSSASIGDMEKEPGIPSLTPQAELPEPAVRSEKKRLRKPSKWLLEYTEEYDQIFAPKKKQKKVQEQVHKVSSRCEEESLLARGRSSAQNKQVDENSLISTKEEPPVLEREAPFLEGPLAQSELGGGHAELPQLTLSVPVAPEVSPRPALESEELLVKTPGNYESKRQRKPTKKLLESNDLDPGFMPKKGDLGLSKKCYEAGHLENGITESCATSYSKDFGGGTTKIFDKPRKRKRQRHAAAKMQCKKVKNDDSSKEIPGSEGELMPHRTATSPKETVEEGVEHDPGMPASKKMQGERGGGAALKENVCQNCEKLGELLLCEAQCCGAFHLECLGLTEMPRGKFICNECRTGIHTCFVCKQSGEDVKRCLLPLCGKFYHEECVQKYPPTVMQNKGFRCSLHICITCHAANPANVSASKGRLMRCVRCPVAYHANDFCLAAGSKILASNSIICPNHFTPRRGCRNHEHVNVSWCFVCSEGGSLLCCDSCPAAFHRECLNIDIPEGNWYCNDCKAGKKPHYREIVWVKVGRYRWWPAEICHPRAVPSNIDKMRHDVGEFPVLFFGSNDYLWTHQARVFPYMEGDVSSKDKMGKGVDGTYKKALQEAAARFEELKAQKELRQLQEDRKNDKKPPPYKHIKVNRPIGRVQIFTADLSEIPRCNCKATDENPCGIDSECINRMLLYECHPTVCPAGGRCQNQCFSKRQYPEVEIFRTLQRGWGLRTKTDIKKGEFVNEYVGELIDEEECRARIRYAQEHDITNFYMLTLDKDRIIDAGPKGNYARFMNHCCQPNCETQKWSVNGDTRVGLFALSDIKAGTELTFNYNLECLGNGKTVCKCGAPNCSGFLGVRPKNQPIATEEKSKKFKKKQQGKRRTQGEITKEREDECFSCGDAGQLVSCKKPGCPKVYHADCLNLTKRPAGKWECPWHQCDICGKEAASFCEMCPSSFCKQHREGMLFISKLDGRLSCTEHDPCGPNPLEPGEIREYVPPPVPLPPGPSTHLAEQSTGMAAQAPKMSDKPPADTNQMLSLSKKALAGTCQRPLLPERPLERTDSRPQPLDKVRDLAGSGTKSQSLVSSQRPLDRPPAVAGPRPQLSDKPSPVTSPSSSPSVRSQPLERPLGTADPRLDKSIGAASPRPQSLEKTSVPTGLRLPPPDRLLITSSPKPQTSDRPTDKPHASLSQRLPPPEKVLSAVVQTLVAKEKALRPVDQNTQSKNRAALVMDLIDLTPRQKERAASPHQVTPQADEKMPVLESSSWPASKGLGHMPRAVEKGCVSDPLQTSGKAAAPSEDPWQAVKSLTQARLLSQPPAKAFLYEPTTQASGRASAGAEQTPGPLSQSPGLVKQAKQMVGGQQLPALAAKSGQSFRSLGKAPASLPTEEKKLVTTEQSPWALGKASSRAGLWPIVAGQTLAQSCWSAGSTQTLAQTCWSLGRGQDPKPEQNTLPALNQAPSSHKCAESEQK

[8] = tested on: MCF7; assay: MTT viability, 7 days treatment, MCF7; type: cell-based; settings: Homo sapiens, 168 h, MCF7, 7 days treatment
Excerpt: (§2) FIG. 8. Activity of NSD inhibitors in breast cancer cell lines.

[9] = tested on: MDA-MB-468; assay: MTT viability, 7 days treatment, MDA-MB-468; type: cell-based; settings: Homo sapiens, 168 h, MDA-MB-468, 7 days treatment
Excerpt: as §2

[10] = tested on: ZR-75-1; assay: MTT viability, 7 days treatment, ZR-75-1; type: cell-based; settings: Homo sapiens, 168 h, ZR-75-1, 7 days treatment
Excerpt: as §2

[11] = tested on: SUM44; assay: Viability, 7 days treatment, SUM44; type: cell-based; settings: 168 h; SUM44, 7 days treatment
Excerpt: as §2

Structure (SMILES): Nc1nc2c(O)cc(N3CC3Cc3ccccc3Cl)cc2s1 (stereo not shown) [Compound 159, 2-Amino-6-(2-(2-chlorobenzyl)aziridin-1-yl)benzo[d]thiazol-4-ol]
- Expression of Hoxa7 in tumors [1]: reduced expression of Hoxa7
- H3K36me2 level in tumor samples (immuno-histochemistry) [1]: Strong reduction of H3K36me2 level
- Differentiation of Nup98-NSD1 cells (cytospins) [2]: differentiation of Nup98-NSD1 cells induced
- Covalent engagement of NSD1 by mass spectrometry ([3]; 6 μM compound incubated with 1 mM of NSD1 SET domain for 8 hours): binds covalently
- CETSA stabilization of NSD1 (1753-2095 fragment) [4]: stabilization of NSD1
- Growth inhibition of Nup98-NSD1 cells (MTT) [5]: time-dependent (3, 7 and 10 days) growth inhibition
- Proliferation of control HM-2 cells (MTT) [6]: does not inhibit proliferation

Structure (SMILES): CC1CN1c1cc(O)c2nc(N)sc2c1 (stereo not shown) [Compound 151]
- HSQC spectrum perturbation of NSD1 residues [7]: Several perturbed residues
- Irreversible binding to NSD1 detected by MS ([3]; 10 μM compound incubated with NSD1 for 20 h): Irreversible binding

- GI50 ([8]; read-out: GI50, MTT viability): 1500 nM
- GI50 ([9]; read-out: GI50, MTT viability): 35 nM
Structure (SMILES): C=CS(=O)(=O)NCc1cccc(NCC#Cc2cc(O)c3nc(N)sc3c2)c1Cl [Compound 230]
- GI50 ([10]; read-out: GI50, MTT viability): 100 nM

- GI50 ([8]; read-out: GI50, viability): 487 nM
- GI50 ([9]; read-out: GI50, viability): 31 nM
Structure (SMILES): C=CS(=O)(=O)NCc1cccc(NCC#Cc2cc(O)c3nc(N)sc3c2)c1F [Compound 225]
- GI50 ([10]; read-out: GI50, viability): 53 nM
- GI50 [11]: 341 nM
